In general, Km refers to the substrate concentration at which the rate is half of its maximum.

Test [1] has as its system chymotrypsin and trypsin. The test can be described thus: Michaelis-Menten kinetics of pNP release in the presence of both chymotrypsin and trypsin. In kind it is biochemical. Particulars: for Km / VMax / kCat/KM (substrate specificity): chymotrypsin and trypsin 0.02 mM each, substrate 0.1-2.0 mM, 35 mM HEPES pH 7.5, 37 °C, absorbance 405 nm, average of n = 3. An excerpt:
In order to ensure the prodrug would be cleaved effectively once it was exposed to chymotrypsin and trypsin in concentrations found in the […], we elected to optimize the peptide sequence further, particularly on the ε-amine of the lysine, to enhance the substrate efficiency (Figure B). This would help to ensure that oxycodone is released in the gastrointestinal tract. […] Previous studies have shown that chymotrypsin binding can be enhanced through additional nonbulky amino acid groups following the aromatic residue. ,− Accordingly, substrates 9 and 10, with alanine residues coupled to phenylalanine, were prepared, and their kinetics were examined. […] Coupling a third alanine to the tyrosine residue (12) increased the substrate specificity by around 5-fold compared to 11. Since coupling of alanine residues to the α-amine of 6–8 increased the percentage of pNP release (Figure A), 13 with a single alanine on the N-terminus was prepared. Compared to substrate 11 with no N-terminal alanine, there was a minimal effect on the K M, but the V Max was reduced by half, leading to a lower k Cat/K M. Since 12 had the highest k Cat/K M and the fastest V Max, we proceeded to use this peptide scaffold for further experiments. […]
(§1) General Procedure – Michaelis-Menten Kinetics […]
(§2) substrate concentration of 2.0, 1.5, 1.0, 0.5, 0.24, and 0.1 mM, maintaining a constant concentration of DMSO across all conditions. These solutions were then combined with chymotrypsin and trypsin to afford a final concentration of 0.02 mM for each enzyme. Immediately upon addition of the proteases, the 96-well plate was inserted into the plate reader and the absorbance at 405 nm was monitored over the course of 4 ho urs with time points taken every 30 seconds. The plate was incubated in the plate reader at 37 °C. All conditions were carried out in triplicate and reported as the average between the three replicates. Michaelis -Menten enzyme kinetic analysis was carried out using GraphPad Prism 8.4.3. Substrate concentrations were adjusted as needed to obtain relevant Michaelis -Menten statistics. Concentrations of substrate are shown in their respective activity plots below.

Test [2] deals with chymotrypsin and trypsin. Nature of the test: Michaelis-Menten competitive inhibition release assay of 12 with peptide byproduct 19. In kind it is biochemical. Particulars: 19 at 1.6, 0.8, 0.4 or 0.2 mM; 12 at 0.1-2.0 mM; chymotrypsin and trypsin 0.02 mM each; 35 mM HEPES pH 7.5; n = 3. An excerpt:
Prior to moving forward with analgesia studies in vivo, it was important to ensure that the AAAY (19) peptide byproduct from chymotrypsin cleavage was not competitively inhibiting the pNP release. This could be an issue in vivo, as the PEPT1 transepithelial transporter in the digestive tract has a very weak binding affinity for tetrapeptides. A lack of transport for 19 could lead to the accumulation and generation of a competitive inhibitor for chymotrypsin, thus reducing the overall amount of opioid released. To examine this hypothesis, Michaelis–Menten competitive inhibition enzyme kinetics were performed with chymotrypsin and trypsin for 12 in the presence of peptide 19. […] These observations enhanced our confidence in using the 12 prodrug scaffold for in vivo analgesia studies.
Competitive Inhibition Release Assay
12 was dissolved in DMSO and diluted using 35 mM HEPES buffer (pH 7.5) to a final substrate concentration of 2.0, 1.5, 1.0, 0.5, 0.24, and 0.1 mM, maintaining a constant concentration of DMSO across all conditions. 19 was added to yield a final concentration of either 1.6, 0.8, 0.4, or 0.2 mM. […] Immediately upon addition of the proteases, the 96 - well plate was inserted into the plate reader and the absorbance at 405 nm was monitored over the course of 4 hours. […]

The subject of test [3] is chymotrypsin and trypsin. Nature of the test: In vitro simulated digestion (pNP release) assay with trypsin, chymotrypsin or both enzymes. In kind it is biochemical. Particulars: substrate 1.5 mM, 35 mM HEPES pH 7.5, 37 °C, n = 3. The procedure:
We hypothesized that by protecting the phenol with a tert-butyl ether, chymotrypsin would not recognize the tyrosine derivative prior to passage through the acidic conditions in the stomach where the tert-butyl ether would be removed. This additional security measure removes the ability to pretreat the prodrug with store-bought digestive enzyme supplements to release the opioid.
General Procedure – Release Kinetics
The peptide was dissolved in DMSO and diluted using 35 mM HEPES buffer (pH 7.5) to a final substrate concentration of 1.5 mM, maintaining a constant concentration of DMSO across all conditions. These solutions were then combined with either chymotrypsin, trypsin, or both enzymes to afford a final concentration of 0.02 mM for each enzyme. Immediately upon addition of the proteases, the 96-well plate was inserted into the plate reader and the absorbance at 405 nm was monitored over the course of 4 hours with time points taken every 30 seconds. The plate was incubated in the plate reader at 37 °C.
as §1, §2

A further test has as its target T1, chymotrypsin (Bos taurus, UniProt P00766).
T1 construct: purchased
The test can be described thus: pNP release assay in the presence of chymotrypsin only. Particulars: chymotrypsin only 0.02 mM, substrate 1.5 mM, 35 mM HEPES pH 7.5, 37 °C, absorbance 405 nm, over 4 h. In kind it is biochemical. An excerpt:
Using the branched lysine peptide sequences modified from our previous work, we began to explore the sequence effects on the efficiency and release rate of a model reporter molecule, p-nitrophenol (pNP). Peptides 6–8 were initially prepared to determine whether the peptide backbone length had any effect on the release of pNP in the presence of chymotrypsin alone (Figure A; see Supporting Information (SI) for synthetic procedures). Chymotrypsin promiscuity (i.e., cleavage of both sites) could lead to less misuse deterrence as only one enzyme could promote the release of the opioid. […] However, substrate 8 reached greater than 90% pNP release within 3 h (Figures A and S15). […]
The peptide was dissolved in DMSO and diluted using 35 mM HEPES buffer (pH 7.5) to a final substrate concentration of 1.5 mM, maintaining a constant concentration of DMSO across all conditions. […] Immediately upon addition of the proteases, the 96-well plate was inserted into the plate reader and the absorbance at 405 nm was monitored over the course of 4 hours with time points taken every 30 seconds. The plate was incubated in the plate reader at 37 °C. […]
substrate concentration of 2.0, 1.5, 1.0, 0.5, 0.24, and 0.1 mM, maintaining a constant concentration of DMSO across all conditions. […] The plate was incubated in the plate reader at 37 °C. […]

The subject of test [4] is C57BL/6J mice. Nature of the test: Hot plate latency after intraperitoneal injection. In kind it is in vivo, mouse. Particulars: 30 mg/kg of oxycodone in prodrug, 55 °C hot plate, n = 6, ns vs water.
Test [5] has as its system C57BL/6J mice. Particulars: IP injection of oxycodone; ref previous reports (reference numbers not printed); cited from earlier work. An excerpt: To confirm that this analgesic effect was due to enzymatic degradation of the prodrug in the digestive system, the antinociceptive effects of prodrug 20 were examined following systemic intraperitoneal (IP) injection.

For “Ac-Lys[Phe-Ala-Ala]-(2-(pNP-thionocarbamate)methyl)ethylamino trifluoroacetate [compound 10]”, in the test with chymotrypsin and trypsin [1], the Km is 1970 µM, the VMax stood at 0.225 µM/s and the “kCat/KM (substrate specificity)” value is listed as 5.73 × 10^–6 μM^-1s^-1.

Consider “Ac-Lys[Phe-Ala]-(2-(pNP-thionocarbamate)methyl)ethylamino trifluoroacetate [compound 9]”, for which, in the test with chymotrypsin and trypsin [1], the Km is 1420 µM and the VMax is 0.021 µM/s.

“Ala-Ala-Ala-Tyr trifluoroacetate [compound 19]”: the “competitive inhibition of pNP release from 12” value in the test on chymotrypsin and trypsin [2] is “negligibly affected”.

As for “Ac-Lys[Tyr-Ala-Ala]-(2-(pNP-thionocarbamate)methyl)ethylamino trifluoroacetate [compound 11]”, in the test with chymotrypsin and trypsin [1], the Km was 4000 µM and the VMax was 0.276 µM/s.

With “Ac-Lys[Tyr(tBu)-Ala-Ala-Ala]-(2-(pNP-thionocarbamate)methyl)ethylamino trifluoroacetate [compound 14]”, the “pNP release over 150 min” value in the test on chymotrypsin and trypsin [3] (both chymotrypsin and trypsin 0.02 mM each, absorbance 405 nm, 150 min, no acidic pretreatment) is given as approximately 5%.

Consider “Ala-Lys[(Ac)Phe]-(2-(pNP-thionocarbamate)methyl)ethylamino trifluoroacetate [compound 7]”, for which, at chymotrypsin, the “pNP release over the course of 4 h, chymotrypsin alone” value is on record as “less than 15%”. Further, in the test with chymotrypsin and trypsin [1], the Km was 941 µM, the VMax is 0.019 µM/s and the “kCat/KM (substrate specificity)” value is listed as 9.97 × 10^–7 μM^-1s^-1.

As for “Ac-Lys[Tyr-Ala-Ala-Ala]-(2-(pNP-thionocarbamate)methyl)ethylamino trifluoroacetate [compound 12]”, in the test on chymotrypsin and trypsin [1], the Michaelis-Menten constant (Km) was determined as 2350 µM and the VMax came out at 0.749 µM/s. Further, the “increase of substrate specificity (kCat/KM) compared to 11” value in the test on chymotrypsin and trypsin [1] (chymotrypsin and trypsin, relative to 11) is reported as “around 5 fold”. Also, the “pNP release at which the simulated digestion assay stagnated” value in the test with chymotrypsin and trypsin [3] (both chymotrypsin and trypsin 0.02 mM each, absorbance 405 nm, plateau) is reported as approximately 30%. For the same compound, in the test on chymotrypsin and trypsin [3] (trypsin, chymotrypsin, or both enzymes, 0.02 mM each), the “enzyme requirement for pNP release” value is on record as “only observed in the presence of both proteolytic enzymes”.

On to “Ac-Lys[Tyr-Ala-Ala-Ala]-(2-(oxycodone-thionocarbamate)methyl)ethylamino ditrifluoroacetate [compound 20]”, for which, in the test on C57BL/6J mice [4], the “withdrawal threshold (hot plate) latency after IP injection” value is “did not alleviate acute pain”.

For “Ac-Ala-Lys[Tyr-Ala-Ala]-(2-(pNP-thionocarbamate)methyl)ethylamino trifluoroacetate [compound 13]”, in the test on chymotrypsin and trypsin [1], the Km was determined as 4160 µM and the VMax was 0.119 µM/s.

With `COc1ccc2c3c1O[C@H]1C(=O)CC[C@@]4(O)[C@@H](C2)N(C)CC[C@]314` [oxycodone], the “analgesic effect after IP injection” value in the test with C57BL/6J mice [5] was “there is an analgesic effect”.

Values taken from PMC12569658, “An Orally Administered Misuse Deterrent Opioid Prodrug for Treatment of Acute Pain” (JACS Au, 2025).
